Paper PMC8151276, “An Integrated Approach toward NanoBRET Tracers for Analysis of GPCR Ligand Engagement” (Molecules, 2021)

Columns and labels:
Assay type in all cases: binding
DRD5 = target: T1, DRD5 (Homo sapiens, UniProt P21918); experiment: NanoBRET screen HiBiT-DRD5 in HEK293
T1 construct: purchased Promega (in-house HiBiT-GPCR construct library, NanoBRET)
Method: (§1) Each tracer candidate was screened across the entire library of HiBiT-GPCR constructs using NanoBRET as the detection modality. As depicted in Figure 4A, the specificity of interactions was evaluated through decrease in BRET due to competitive displacement of a bound tracer by excess parental compound. Each tracer was analyzed for binding to each HiBiT-GPCR fusion in the absence and in the presence of competing parental compound. Briefly, HEK293 cells were transfected with HiBiT-GPCR constructs diluted into promoterless DNA to reduce expression and maximize translocation to the cell surface. Each tracer candidate was then screened at concentrations of 1 μM and 0.1 μM across cells expressing these fusions. Cells were treated for 1.5 h with tracer either alone or in the presence of 20 μM competing parental compound (i.e., control). BRET was measured upon addition of purified LgBiT and subsequent complementation with HiBiT genetically fused to a GPCR. The specificity of interactions was assessed through a decrease in BRET signal due to competitive displacement of the bound tracer. To further gauge the robustness of these interactions, the fold response over the control (i.e., BRETtracer/BRETcontrol) was calculated. We chose a 1.5-fold response, which translates to ≥7-fold signal over noise as the minimal threshold required to score an interaction as positive. […]. Below we highlight the screening results obtained for our exemplary fluorescent tracers based on Clozapine, Amitriptyline and AZD1283.
(§2) HiBiT-GPCR DNA constructs were diluted in 10 mM Tris pH 8 to a final concentration of 0.01 μg/μL, arrayed in 96-well plates and stored at −20 °C. For transfection, HEK293 cells were suspended in Opti-MEM (without phenol red) supplemented with 2% fetal bovine serum (Seradigm) and 100 units/mL penicillin–streptomycin (Gibco) at a final concentration of 220,000 cells/mL and dispensed into white 96-well plates at 90 μL/well. Subsequent transfections and screens were carried using an Agilent Bravo Automated Liquid Handling Platform. First, the 96-well HiBiT DNA arrays were diluted 25-fold in Opti-MEM (without serum or phenol red) to a final concentration of 0.0004 μg/μL and 20 μL of the diluted DNAs were transferred into new 96-well plates. Next, promoterless carrier DNA (1 μg/μL) was diluted 25-fold (0.04 μg/μL) and then dispensed into the diluted arrays at 20 μL/well. Following brief mixing, Viafect transfection reagent (Promega) diluted 16-fold into Opti-MEM was dispensed into the plates at 40 μL/well. After mixing by pipetting, plates were incubated for 10 min on the pipetting station deck. The DNA-transfection reagent complexes were then added to plates containing cells. To facilitate the screen, 10 μL of DNA-transfection reagent complexes were added in duplicates to the top 4 and bottom 4 rows, resulting in two identical 48-well arrays per plate. Plates with transfected cells were incubated for 18–20 h at 37 °C/5% CO2. A screen of each tracer across the entire library using two different concentrations requires duplicate plates of transfected cells. Depending on the number of tracers being screened, transfections can be scaled up using the same ratios. The next day, for each tracer, four 20× screening solutions in tracer dilution buffer (Promega) were prepared: two duplicates at final concentration of 20 μM and two duplicates at a final concentration of 2 μM. A competing unmodified compound was added to one of each duplicate at a final concentration of 400 μM. The four resulting solutions were diluted 4-fold in Opti-MEM without serum or phenol red to generate 5× solutions (5 µM and 0.5 µM tracer +/− 100 μM competing compound). To screen the library, a BioTek MultiFlo FX liquid dispenser was used to dispense 22.5 µL of tracer solution to the top 4 rows and 22.5 µL tracer + competing compound solution to the 4 bottom rows. Plates were briefly mixed on an orbital shaker and incubated for 1.5 h at room temperature. […]

HTR1D = target: T2, HTR1D (Homo sapiens, UniProt P28221); experiment: NanoBRET screen HiBiT-HTR1D in HEK293
T2 construct: purchased Promega (in-house HiBiT-GPCR construct library, NanoBRET)
T2 sequence (P28221 whole entry): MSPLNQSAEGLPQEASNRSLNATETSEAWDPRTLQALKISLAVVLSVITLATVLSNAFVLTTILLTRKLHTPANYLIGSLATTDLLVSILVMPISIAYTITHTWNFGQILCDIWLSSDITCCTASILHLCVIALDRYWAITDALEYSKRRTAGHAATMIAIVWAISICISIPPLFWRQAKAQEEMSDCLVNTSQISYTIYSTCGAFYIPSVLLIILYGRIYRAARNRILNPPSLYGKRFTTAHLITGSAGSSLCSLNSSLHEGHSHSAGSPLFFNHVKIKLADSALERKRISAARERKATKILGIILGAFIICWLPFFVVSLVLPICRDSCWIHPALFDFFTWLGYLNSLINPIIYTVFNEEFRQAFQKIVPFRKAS
Method: as §1, §2

FZD1 = target: T3, FZD1 (Homo sapiens, UniProt Q9UP38); experiment: NanoBRET screen HiBiT-FZD1 in HEK293
T3 construct: purchased Promega (in-house HiBiT-GPCR construct library, NanoBRET)
T3 sequence (Q9UP38 70-647): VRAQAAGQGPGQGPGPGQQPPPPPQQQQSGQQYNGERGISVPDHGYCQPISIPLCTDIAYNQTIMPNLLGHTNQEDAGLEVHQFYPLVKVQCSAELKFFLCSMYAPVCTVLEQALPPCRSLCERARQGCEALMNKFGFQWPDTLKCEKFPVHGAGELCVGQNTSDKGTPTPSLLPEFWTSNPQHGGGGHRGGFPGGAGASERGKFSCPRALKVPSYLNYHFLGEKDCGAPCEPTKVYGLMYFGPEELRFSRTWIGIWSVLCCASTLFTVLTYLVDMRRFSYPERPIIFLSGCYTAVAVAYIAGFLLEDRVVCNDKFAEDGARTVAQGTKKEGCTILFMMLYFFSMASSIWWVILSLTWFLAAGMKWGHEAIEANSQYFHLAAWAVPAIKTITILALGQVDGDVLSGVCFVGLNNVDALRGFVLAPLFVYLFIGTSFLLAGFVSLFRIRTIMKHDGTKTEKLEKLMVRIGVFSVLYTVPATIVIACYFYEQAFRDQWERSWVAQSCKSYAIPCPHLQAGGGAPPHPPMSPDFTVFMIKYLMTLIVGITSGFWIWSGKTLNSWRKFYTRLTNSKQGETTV
Method: as §1, §2

CXCR1 = target: T4, CXCR1 (Homo sapiens, UniProt P25024); experiment: NanoBRET screen HiBiT-CXCR1 in HEK293
T4 construct: purchased Promega (in-house HiBiT-GPCR construct library, NanoBRET)
T4 sequence (P25024 1-350): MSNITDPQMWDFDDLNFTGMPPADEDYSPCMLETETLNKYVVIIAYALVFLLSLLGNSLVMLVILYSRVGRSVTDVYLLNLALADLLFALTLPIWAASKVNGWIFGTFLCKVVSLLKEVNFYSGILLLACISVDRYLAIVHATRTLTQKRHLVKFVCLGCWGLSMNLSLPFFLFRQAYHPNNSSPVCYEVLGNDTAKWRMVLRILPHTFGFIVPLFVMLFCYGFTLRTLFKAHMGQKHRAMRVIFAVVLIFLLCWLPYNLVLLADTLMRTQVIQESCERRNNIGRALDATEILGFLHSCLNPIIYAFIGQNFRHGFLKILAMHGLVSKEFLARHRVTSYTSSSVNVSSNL
Method: as §1, §2

TACR3 = target: T5, TACR3 (Homo sapiens, UniProt P29371); experiment: NanoBRET screen HiBiT-TACR3 in HEK293
T5 construct: purchased Promega (in-house HiBiT-GPCR construct library, NanoBRET)
T5 sequence (P29371 1-465): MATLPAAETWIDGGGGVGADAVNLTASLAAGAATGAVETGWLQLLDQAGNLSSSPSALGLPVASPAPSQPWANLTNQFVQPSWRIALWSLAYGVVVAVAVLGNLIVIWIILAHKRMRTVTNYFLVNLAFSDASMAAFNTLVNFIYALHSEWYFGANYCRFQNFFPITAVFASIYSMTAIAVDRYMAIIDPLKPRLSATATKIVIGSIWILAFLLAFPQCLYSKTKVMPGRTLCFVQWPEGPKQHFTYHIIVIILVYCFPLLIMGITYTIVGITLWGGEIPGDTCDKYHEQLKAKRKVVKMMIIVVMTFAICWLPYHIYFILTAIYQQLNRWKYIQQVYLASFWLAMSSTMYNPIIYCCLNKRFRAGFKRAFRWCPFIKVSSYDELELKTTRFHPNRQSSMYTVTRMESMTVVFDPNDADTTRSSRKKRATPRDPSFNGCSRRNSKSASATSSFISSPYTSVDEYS
Method: as §1, §2

T1 sequence (P21918 whole entry): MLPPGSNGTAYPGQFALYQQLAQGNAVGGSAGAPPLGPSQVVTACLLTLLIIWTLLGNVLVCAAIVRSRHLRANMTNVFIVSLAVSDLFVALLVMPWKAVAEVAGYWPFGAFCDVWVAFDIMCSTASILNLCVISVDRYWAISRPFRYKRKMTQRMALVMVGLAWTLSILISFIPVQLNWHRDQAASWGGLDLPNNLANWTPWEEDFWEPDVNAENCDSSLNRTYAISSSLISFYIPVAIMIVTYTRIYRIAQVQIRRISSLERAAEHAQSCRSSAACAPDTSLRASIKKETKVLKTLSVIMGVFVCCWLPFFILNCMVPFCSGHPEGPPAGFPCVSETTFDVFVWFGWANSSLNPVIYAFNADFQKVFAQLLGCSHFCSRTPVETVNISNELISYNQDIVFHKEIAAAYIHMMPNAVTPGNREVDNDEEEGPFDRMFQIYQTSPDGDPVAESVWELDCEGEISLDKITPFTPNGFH

CN(CCC=C1c2ccccc2CCc2ccccc21)C(=O)CCOCCOCCOCCOCCNC(=O)CCc1ccc2n1[B-](F)(F)[N+]1=C(c3ccc[nH]3)C=CC1=C2 [Amitriptyline-e-2-NB590]
NanoBRET Fold Response (DRD5; tracer at 1μM): 1.11
NanoBRET Fold Response (HTR1D; tracer at 1μM): 0.96
NanoBRET Fold Response (FZD1; tracer at 1μM): 0.98
NanoBRET Fold Response (CXCR1; tracer at 1μM): 0.93

COc1ccc2c(n1)c(CCNC(C)=O)cn2CCNC(=O)CCc1ccc2n1[B-](F)(F)[N+]1=C(c3ccc[nH]3)C=CC1=C2 [Azamelatonin-1-NB590]
NanoBRET Fold Response (DRD5; 0.1μM tracer): 0.97
NanoBRET Fold Response (DRD5; 1μM tracer): 0.96
NanoBRET Fold Response (HTR1D; 0.1μM tracer): 0.68
NanoBRET Fold Response (HTR1D; 1μM tracer): 0.68
NanoBRET Fold Response (TACR3; 0.1μM tracer): 1.06
NanoBRET Fold Response (TACR3; 1μM tracer): 0.87
NanoBRET Fold Response (FZD1; 0.1μM tracer): 1.10
NanoBRET Fold Response (FZD1; 1μM tracer): 1.10
NanoBRET Fold Response (CXCR1; 0.1μM tracer): 0.88
NanoBRET Fold Response (CXCR1; 1μM tracer): 1.15

COc1ccc2[nH]c(-c3ccc(CNC(=O)CCOCCOCCOCCOCCNC(=O)CCc4ccc5n4[B-](F)(F)[N+]4=C(c6ccc[nH]6)C=CC4=C5)cc3)c(CCNC(C)=O)c2n1 [AzomelatoninICO9-2-NB590]
NanoBRET Fold Response (DRD5; 0.1μM tracer): 1.14
NanoBRET Fold Response (DRD5; 1μM tracer): 0.93
NanoBRET Fold Response (HTR1D; 0.1μM tracer): 0.63
NanoBRET Fold Response (HTR1D; 1μM tracer): 1.14
NanoBRET Fold Response (TACR3; 0.1μM tracer): 1.23
NanoBRET Fold Response (TACR3; 1μM tracer): 1.00
NanoBRET Fold Response (FZD1; 0.1μM tracer): 0.86
NanoBRET Fold Response (FZD1; 1μM tracer): 1.05
NanoBRET Fold Response (CXCR1; 0.1μM tracer): 1.06
NanoBRET Fold Response (CXCR1; 1μM tracer): 0.96

O=C(CCOCCOCCOCCOCCNC(=O)CCc1ccc2n1[B-](F)(F)[N+]1=C(c3ccc[nH]3)C=CC1=C2)NCCCN1CCN(C2=Nc3cc(Cl)ccc3Nc3ccccc32)CC1 [Clozapine-a-2-NB590]
NanoBRET Fold Response (DRD5; DRD5, 0.1μM tracer): 2.41
NanoBRET Fold Response (DRD5; DRD5, 1μM tracer): 2.86
NanoBRET Fold Response (HTR1D; HTR1D, 0.1μM tracer): 1.21
NanoBRET Fold Response (HTR1D; HTR1D, 1μM tracer): 1.67
NanoBRET Fold Response (TACR3; TACR3, 0.1μM tracer): 0.99
NanoBRET Fold Response (TACR3; TACR3, 1μM tracer): 1.21
NanoBRET Fold Response (FZD1; FZD1, 0.1μM tracer): 0.98
NanoBRET Fold Response (FZD1; FZD1, 1μM tracer): 0.93
NanoBRET Fold Response (CXCR1; CXCR1, 0.1μM tracer): 0.99
NanoBRET Fold Response (CXCR1; CXCR1, 1μM tracer): 0.94

COc1ccccc1N1CCN(CCCCN2C(=O)c3ccc(CNC(=O)CCOCCOCCOCCOCCNC(=O)CCc4ccc5n4[B-](F)(F)[N+]4=C(c6ccc[nH]6)C=CC4=C5)cc3C2=O)CC1 [NAN-190-2-NB590]
NanoBRET Fold Response (DRD5; DRD5, tracer 0.1μM): 1.02
NanoBRET Fold Response (DRD5; DRD5, tracer 1μM): 1.21
NanoBRET Fold Response (HTR1D; HTR1D, tracer 0.1μM): 1.35
NanoBRET Fold Response (HTR1D; HTR1D, tracer 1μM): 1.41
NanoBRET Fold Response (FZD1; FZD1, tracer 0.1μM): 0.99
NanoBRET Fold Response (FZD1; FZD1, tracer 1μM): 1.06
NanoBRET Fold Response (CXCR1; CXCR1, tracer 0.1μM): 0.97
NanoBRET Fold Response (CXCR1; CXCR1, tracer 1μM): 1.05
